Measurements published in US7109243B2 (IRM LLC, priority 2003, dated 2006).

What was measured:
[1] = target: T1, Cathepsin K (Homo sapiens, UniProt P43235); test: Cathepsin K inhibition assay (fluorogenic peptide substrate); selectivity ratio vs cathepsin S; type: biochemical; conditions: ratio of cathepsin K inhibition constant to cathepsin S inhibition constant; Table II
T1 sequence (P43235 115-329): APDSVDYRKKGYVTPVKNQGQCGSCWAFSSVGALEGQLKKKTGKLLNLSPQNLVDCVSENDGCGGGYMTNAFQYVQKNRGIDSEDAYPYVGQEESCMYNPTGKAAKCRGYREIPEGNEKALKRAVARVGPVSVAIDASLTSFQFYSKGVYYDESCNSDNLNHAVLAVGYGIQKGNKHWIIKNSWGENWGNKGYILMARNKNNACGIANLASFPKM
How it was run: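 Inhibition constants for competitive inhibitors come from apparent values fitted to enzyme progress curves. Substrate, acetyl-Lys-His-Pro-Lys-aminocarbamoylcoumarin (40 μM final), starts the reaction; fluorescence rise read at 380 nm excitation, 450 nm emission. Selectivity ratio: other cathepsin constant over cathepsin S constant.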

[2] = target: Cathepsin S (Homo sapiens, UniProt P25774); test: Cathepsin S inhibition assay (fluorogenic peptide substrate); type: biochemical; conditions: Table II, compounds of Formula I; read-out: Ki Cat. S
Sequence of Cathepsin S (P25774 115-331, species assumed): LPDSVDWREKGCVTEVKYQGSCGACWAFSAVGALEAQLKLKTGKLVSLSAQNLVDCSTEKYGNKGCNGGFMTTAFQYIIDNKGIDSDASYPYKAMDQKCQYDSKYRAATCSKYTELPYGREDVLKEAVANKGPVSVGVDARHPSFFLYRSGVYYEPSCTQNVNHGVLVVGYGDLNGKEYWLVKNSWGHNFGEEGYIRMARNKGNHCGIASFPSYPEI
How it was run: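 Ki values come from nonlinear fitting of inhibited hydrolysis rates, taking free and total inhibitor concentrations as equal. Rates measured as rising fluorescence at 380/450 nm after reaction start with 50 μM final acetyl-HPVK-aminocarbamoylcoumarin.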

Compound | Selectivity for Cat. S over Cat. K [1] | Ki [2]
O=C(N[C@@H](CC1CCCCC1)C(=O)NCCNc1ccc(F)cc1)c1ccc(-c2cccc(C(F)(F)F)c2)o1 [Compound 85, 5-(3-Trifluoromethyl-phenyl)-furan-2-carboxylic acid (S)-{2-cyclohexyl-1-[2-(4-fluoro-phenylamino)-ethylcarbamoyl]-ethyl}-amide] | ++ (++, >100) | < 100 nM
COc1ccc(NCCNC(=O)[C@H](Cc2ccccc2)NC(=O)NCCc2ccccc2)cc1 [Compound 90, (S)-N-[2-(4-Methoxy-phenylamino)-ethyl]-2-(3-phenethyl-ureido)-3-phenyl-propionamide] | + (+, >10) | < 1000 nM
COc1ccc(NCCNC(=O)[C@H](Cc2ccccc2)NC(=O)NCc2ccc(F)cc2)cc1 [Compound 91, (S)-2-[3-(4-Fluoro-benzyl)-ureido]-N-[2-(4-methoxy-phenylamino)-ethyl]-3-phenyl-propionamide] | + (+, >10) | < 10000 nM
O=C(N[C@@H](CC1CCCCC1)C(=O)NCCNc1ccc(OC(F)(F)F)cc1)C1CCCN(c2ncc(Br)cn2)C1 (stereo partly drawn) [Compound 93, 1-(5-Bromo-pyrimidin-2-yl)-piperidine-3-carboxylic acid (S)-{2-cyclohexyl-1-[2-(4-trifluoromethoxy-phenylamino)-ethylcarbamoyl]-ethyl}-amide] | +++ (+++, >1000) | < 1000 nM
O=C(Cc1cc(F)ccc1F)N[C@@H](CC1CCCCC1)C(=O)NCCNc1ccc(F)cc1 [Compound 95, 3-Cyclohexyl-2-(S)-[2-(2,5-difluorophenyl)-acetylamino]-N-[2-(4-fluoro-phenylamino)-ethyl]-propionamide] | ++ (++, >100) | < 100 nM
COc1ccc(NCCNC(=O)[C@H](Cc2ccccc2)NC(=O)NCc2cccc(F)c2)cc1 [Compound 96, (S)-2-[3-(3-Fluoro-benzyl)-ureido]-N-[2-(4-methoxy-phenylamino)-ethyl]-3-phenyl-propionamide] | + (+, >10) | < 10000 nM
COc1ccc(NCCNC(=O)[C@H](Cc2ccc(Oc3ccc(Cl)c(Cl)c3)cc2)NC(=O)c2cccc(C)c2)cc1 [Compound 98, (S)-N-{2-[4-(3,4-Dichloro-phenoxy)-phenyl]-1-[2-(4-methoxy-phenylamino)-ethylcarbamoyl]-ethyl}-3-methyl-benzamide] | ++ (++, >100) | < 1000 nM
O=C(Cc1ccc(F)cc1F)N[C@@H](CC1CCCCC1)C(=O)NCCNc1ccc(F)cc1 [Compound 100, 3-Cyclohexyl-2-(S)-[2-(2,4-difluoro-phenyl)-acetylamino]-N-[2-(4-fluoro-phenylamino)-ethyl]-propionamide] | +++ (+++, >1000) | < 100 nM
COc1ccc(NCCNC(=O)[C@H](CC2CCCCC2)NC(=O)c2cccc(C(F)(F)F)c2)cc1 [Compound 106, (S)-N-{2-Cyclohexyl-1-[2-(4-methoxy-phenylamino)-ethylcarbamoyl]-ethyl}-3-trifluoromethyl-benzamide] | ++ (++, >100) | < 100 nM
COc1ccc(NCCNC(=O)[C@H](CC2CCCCC2)NC(=O)c2cccc(C)c2Cl)cc1 [Compound 108, (S)-2-Chloro-N-{2-cyclohexyl-1-[2-(4-methoxy-phenylamino)-ethylcarbamoyl]-ethyl}-3-methyl-benzamide] | ++ (++, >100) | < 100 nM
COc1ccc(NCCNC(=O)[C@H](CC2CCCCC2)NC(=O)c2ccc(OCc3ccccc3)cc2)cc1 [Compound 109, (S)-4-Benzyloxy-N-{2-cyclohexyl-1-[2-(4-methoxy-phenylamino)-ethylcarbamoyl]-ethyl}-benzamide] | +++ (+++, >1000) | < 100 nM
COc1ccc(NCCNC(=O)[C@H](CC2CCCCC2)NC(=O)c2cc(C)c(OCc3ccccc3)c(C)c2)cc1 [Compound 110, (S)-4-Benzyloxy-N-{2-cyclohexyl-1-[2-(4-methoxy-phenylamino)-ethylcarbamoyl]-ethyl}-3,5-dimethyl-benzamide] | ++ (++, >100) | < 100 nM
COc1ccc(NCCNC(=O)[C@H](CC2CCCCC2)NC(=O)c2cc(C)c(OC)c(C)c2)cc1 [Compound 111, (S)-N-{2-Cyclohexyl-1-[2-(4-methoxy-phenylamino)-ethylcarbamoyl]-ethyl}-4-methoxy-3,5-dimethyl-benzamide] | ++ (++, >100) | < 100 nM
COc1ccc(NCCNC(=O)[C@H](CC2CCCCC2)NC(=O)c2ccc(C)c(Br)c2)cc1 [Compound 112, (S)-3-Bromo-N-{2-cyclohexyl-1-[2-(4-methoxy-phenylamino)-ethylcarbamoyl]-ethyl}-4-methyl-benzamide] | ++ (++, >100) | < 100 nM

Second part, the molecule after the results:

Selectivity for Cat. S over Cat. K [1] | Ki [2] | Compound
++ (++, >100) | < 100 nM | CS(=O)(=O)Nc1cccc(C(=O)N[C@@H](CC2CCCCC2)C(=O)NCCNc2ccc(F)cc2)c1 [Compound 84, N-(S)-{2-cyclohexyl-1-[2-(4-fluoro-phenylamino)-ethylcarbamoyl]-ethyl}-3-methanesulfonylamino-benzamide]
++ (++, >100) | < 100 nM | O=C(Cc1ccc(OC(F)(F)F)cc1)N[C@@H](CC1CCCCC1)C(=O)NCCNc1ccc(F)cc1 [Compound 87, 3-Cyclohexyl-N-(S)-[2-(4-fluoro-phenylamino)-ethyl]-2-[2-(4-trifluoromethoxy-phenyl)-acetylamino]-propionamide]
+ (+, >10) | < 1000 nM | COc1ccc(NCCNC(=O)[C@H](Cc2ccccc2)NC(=O)Nc2ccc(Cl)cc2)cc1 [Compound 88, (S)-2-[3-(4-Chloro-phenyl)-ureido]-N-[2-(4-methoxy-phenylamino)-ethyl]-3-phenyl-propionamide]
+ (+, >10) | < 1000 nM | COc1ccc(NCCNC(=O)[C@H](Cc2ccccc2)NC(=O)Nc2ccc(Oc3ccccc3)cc2)cc1 [Compound 89, (S)-N-[2-(4-Methoxy-phenylamino)-ethyl]-2-[3-(4-phenoxy-phenyl)-ureido]-3-phenyl-propionamide]
+ (+, >10) | < 100 nM | Cc1cc(C)nc(Nc2ccc(C(=O)N[C@@H](CC3CCCCC3)C(=O)NCCNc3ccc(OC(F)(F)F)cc3)cc2)n1 [Compound 92, N-(S)-{2-cyclohexyl-1-[2-(4-trifluoromethoxy-phenylamino)-ethylcarbamoyl]-ethyl}-4-(4,6-dimethyl-pyrimidin-2-ylamino)-benzamide]
+ (+, >10) | < 10000 nM | COc1ccc(NCCNC(=O)[C@H](Cc2ccccc2)NC(=O)Nc2ccc3c(c2)OCO3)cc1 [Compound 94, (S)-2-(3-Benzo[1,3]dioxol-5-yl-ureido)-N-[2-(4-methoxy-phenylamino)-ethyl]-3-phenyl-propionamide]
+ (+, >10) | < 1000 nM | COc1ccc(NCCNC(=O)[C@H](Cc2ccccc2)NC(=O)Nc2ccccc2C)cc1 [Compound 97, (S)-N-[2-(4-Methoxy-phenylamino)-ethyl]-3-phenyl-2-(3-o-tolyl-ureido)-propionamide]
++ (++, >100) | < 100 nM | O=C(Cc1ccc(F)c(F)c1)N[C@@H](CC1CCCCC1)C(=O)NCCNc1ccc(F)cc1 [Compound 99, 3-Cyclohexyl-2-(S)-[2-(3,4-difluoro-phenyl)-acetylamino]-N-[2-(4-fluoro-phenylamino)-ethyl]-propionamide]
+ (+, >10) | < 1000 nM | COc1ccc(NCCNC(=O)[C@H](Cc2ccccc2)NC(=O)Nc2cccc3ccccc23)cc1 [Compound 101, (S)-N-[2-(4-Methoxy-phenylamino)-ethyl]-2-(3-naphthalen-1-yl-ureido)-3-phenyl-propionamide]
++ (++, >100) | < 100 nM | COc1ccc(NCCNC(=O)[C@H](Cc2ccccc2)NC(=O)Nc2c(C)cccc2C(C)(C)C)cc1 [Compound 102, (S)-2-[3-(2-tert-Butyl-6-methyl-phenyl)-ureido]-N-[2-(4-methoxy-phenylamino)-ethyl]-3-phenyl-propionamide]
++ (++, >100) | < 1000 nM | COc1ccc(NCCNC(=O)[C@H](Cc2ccccc2)NC(=O)Nc2ccc(C(C)=O)cc2)cc1 [Compound 103, (S)-2-[3-(4-Acetyl-phenyl)-ureido]-N-[2-(4-methoxy-phenylamino)-ethyl]-3-phenyl-propionamide]
+ (+, >10) | < 10000 nM | COc1ccc(NCCNC(=O)[C@H](Cc2ccccc2)NC(=O)Nc2cccc(OC)c2)cc1 [Compound 104, (S)-N-[2-(4-Methoxy-phenylamino)-ethyl]-2-[3-(3-methoxy-phenyl)-ureido]-3-phenyl-propionamide]
+++ (+++, >1000) | < 100 nM | O=C(Cc1ccc(F)cc1Cl)N[C@@H](CC1CCCCC1)C(=O)NCCNc1ccc(F)cc1 [Compound 107, 2-(S)-[2-(2-Chloro-4-fluoro-phenyl)-acetylamino]-3-cyclohexyl-N-[2-(4-fluoro-phenylamino)-ethyl]-propionamide]
